The text below walks through data of paper PMC7011996 (Journal of Enzyme Inhibition and Medicinal Chemistry, 2017).

In general, Ki refers to a measure of affinity in units of concentration, obtained from inhibition or displacement.

The structures appear in SMILES notation.

In this test the target is T1, hCA XII (Homo sapiens, UniProt O43570).
T1 construct: gene CA12
In words: stopped-flow CO2 hydration assay. The format is biochemical.

T1 sequence (O43570 25-354): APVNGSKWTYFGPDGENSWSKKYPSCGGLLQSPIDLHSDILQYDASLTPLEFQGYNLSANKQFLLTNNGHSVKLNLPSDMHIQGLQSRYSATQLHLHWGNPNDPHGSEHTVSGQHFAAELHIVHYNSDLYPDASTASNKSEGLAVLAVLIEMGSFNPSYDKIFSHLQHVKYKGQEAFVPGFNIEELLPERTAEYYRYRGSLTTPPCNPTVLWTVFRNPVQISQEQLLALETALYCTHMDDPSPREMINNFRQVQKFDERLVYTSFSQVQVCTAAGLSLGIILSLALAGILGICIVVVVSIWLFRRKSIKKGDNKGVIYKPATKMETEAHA

In turn, `NS(=O)(=O)c1ccc(CC[n+]2c(-c3ccccc3)cc(-c3ccccc3)cc2-c2ccccc2)cc1` [compound 2, 1-(4-sulfamoylphenyl-ethyl)-2,4,6-triphenylpyridinium perchlorate] registered an inhibitory constant (Ki) of 12.5 nM.
